# Data as given in US10131652B2, “Pyrimidinyloxy benzene derivatives as herbicides” (E. I. DU PONT DE NEMOURS AND COMPANY, priority 2014, dated 2018).
# What was measured:
# Type in all cases: in vivo
# [1] = system: blackgrass (Alopecurus myosuroides); test: Test B postemergence plant response
# Outline: (§1)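 Visual injury rating, 0–100 (0 = no effect, 100 = complete control), vs untreated controls ~10 days after postemergence spray; greenhouse; potted loam soil/sand; plants 2–10 cm, 1–2 leaf stage.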
# [2] = system: galium (catchweed bedstraw, Galium aparine); test: Test B postemergence plant response
# Outline: as §1
# [3] = system: Italian ryegrass (Lolium multiflorum); test: Test D pre-/postemergence plant response; conditions: Lolium multiflorum, pre-emergence, Preemergence
# Outline: (§2)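 Two application timings were run together: preemergence onto seeded loam–sand pots, and postemergence onto 1- to 4-leaf plants (2 to 18 cm) in peat/vermiculite medium with starter nutrients. Formulation was a non-phytotoxic solvent with surfactant. Ratings, 0 to 100, were made visually versus controls after 13 to 15 greenhouse days.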
# [4] = system: barnyardgrass (Echinochloa crus-galli); test: Test D pre-/postemergence plant response; conditions: Echinochloa crus-galli, pre-emergence, Preemergence
# Outline: as §2
# corn (Zea mays) = test: Test D pre-/postemergence plant response; conditions: Zea mays, pre-emergence, Preemergence
# Outline: as §2
# [5] = system: giant foxtail (Setaria faberii); test: Test D pre-/postemergence plant response; conditions: Setaria faberi, pre-emergence, Preemergence
# Outline: as §2
# [6] = system: morningglory (Ipomoea coccinea); test: Test D pre-/postemergence plant response; conditions: Ipomoea, pre-emergence, Preemergence
# Outline: as §2
# [7] = system: oilseed rape (Brassica napus); test: Test D pre-/postemergence plant response; conditions: Brassica napus, pre-emergence, Preemergence
# Outline: as §2
# [8] = system: pigweed (Amaranthus retroflexus); test: Test D pre-/postemergence plant response; conditions: Amaranthus retroflexus, pre-emergence, Preemergence
# Outline: as §2
# [9] = system: ragweed (common ragweed, Ambrosia elatior); test: Test D pre-/postemergence plant response; conditions: Ambrosia artemisiifolia, pre-emergence, Preemergence
# Outline: as §2
# soybean (Glycine max) = test: Test D pre-/postemergence plant response; conditions: Glycine max, pre-emergence, Preemergence
# Outline: as §2
# [10] = system: waterhemp (common waterhemp, Amaranthus rudis); test: Test D pre-/postemergence plant response; conditions: Amaranthus tuberculatus, pre-emergence, Preemergence
# Outline: as §2
# [11] = system: yellow nutsedge (Cyperus esculentus); test: Test D pre-/postemergence plant response; conditions: Cyperus, pre-emergence, Preemergence
# Outline: as §2
# [12] = 125 g ai/ha, postemergence, 0 to 100 scale, 0 no effect, 100 complete control
# [13] = Postemergence, 500 g ai/ha, 0 to 100 scale (0 no effect, 100 complete control)
structure (smiles),measurement,setting,value
"N#Cc1cccc(Oc2ncc(Cl)cn2)c1-c1cc(C(F)(F)F)ccn1 [Compound 158, 5-chloro-2-[3-cyano-2-[4-(trifluoromethyl)-2-pyridinyl]phenoxy]pyrimidine]","Plant response rating, Blackgrass",[1]; [12],30
same,"Plant response rating, Blackgrass",[1]; [13],90
same,"Plant response rating, Galium",[2]; [12],30
same,"Plant response rating, Galium",[2]; [13],100
same,pest or weed control at 125 g/ha,"[3]; 125 g ai/ha, read-out: Plant response rating (scale 0 to 100), Ryegrass, Italian",20%
same,pest or weed control at 16 g/ha,"[3]; 16 g ai/ha, scale 0 to 100 (0 no effect, 100 complete control), read-out: Plant response rating, Ryegrass, Italian",0%
same,pest or weed control at 31 g/ha,"[3]; 31 g ai/ha, scale 0 to 100 (0 no effect, 100 complete control), read-out: Plant response rating, Ryegrass, Italian",0%
same,pest or weed control at 62 g/ha,"[3]; 62 g ai/ha, scale 0 to 100 (0 no effect, 100 complete control), read-out: Plant response rating, Ryegrass, Italian",0%
same,pest or weed control at 125 g/ha,"[4]; 125 g ai/ha, read-out: Plant response rating (scale 0 to 100), Barnyardgrass",20%
same,pest or weed control at 16 g/ha,"[4]; 16 g ai/ha, scale 0 to 100 (0 no effect, 100 complete control), read-out: Plant response rating, Barnyardgrass",0%
same,pest or weed control at 31 g/ha,"[4]; 31 g ai/ha, scale 0 to 100 (0 no effect, 100 complete control), read-out: Plant response rating, Barnyardgrass",5%
same,pest or weed control at 62 g/ha,"[4]; 62 g ai/ha, scale 0 to 100 (0 no effect, 100 complete control), read-out: Plant response rating, Barnyardgrass",35%
same,plant injury at 125 g/ha,"corn (Zea mays); 125 g ai/ha, read-out: Plant response rating (scale 0 to 100), Corn",15%
same,"Corn plant response rating (crop injury, 0 = no effect, 100 = complete kill) at 16 g/ha","corn (Zea mays); 16 g ai/ha, scale 0 to 100 (0 no effect, 100 complete control)",0%
same,"Corn plant response rating (crop injury, 0 = no effect, 100 = complete kill) at 31 g/ha","corn (Zea mays); 31 g ai/ha, scale 0 to 100 (0 no effect, 100 complete control)",0%
same,"Corn plant response rating (crop injury, 0 = no effect, 100 = complete kill) at 62 g/ha","corn (Zea mays); 62 g ai/ha, scale 0 to 100 (0 no effect, 100 complete control)",5%
same,pest or weed control at 125 g/ha,"[5]; 125 g ai/ha, read-out: Plant response rating (scale 0 to 100), Foxtail, Giant",100%
same,pest or weed control at 16 g/ha,"[5]; 16 g ai/ha, scale 0 to 100 (0 no effect, 100 complete control), read-out: Plant response rating, Foxtail, Giant",5%
same,pest or weed control at 31 g/ha,"[5]; 31 g ai/ha, scale 0 to 100 (0 no effect, 100 complete control), read-out: Plant response rating, Foxtail, Giant",55%
same,pest or weed control at 62 g/ha,"[5]; 62 g ai/ha, scale 0 to 100 (0 no effect, 100 complete control), read-out: Plant response rating, Foxtail, Giant",85%
same,pest or weed control at 125 g/ha,"[6]; 125 g ai/ha, read-out: Plant response rating (scale 0 to 100), Morningglory",70%
same,pest or weed control at 16 g/ha,"[6]; 16 g ai/ha, scale 0 to 100 (0 no effect, 100 complete control), read-out: Plant response rating, Morningglory",5%
same,pest or weed control at 31 g/ha,"[6]; 31 g ai/ha, scale 0 to 100 (0 no effect, 100 complete control), read-out: Plant response rating, Morningglory",15%
same,pest or weed control at 62 g/ha,"[6]; 62 g ai/ha, scale 0 to 100 (0 no effect, 100 complete control), read-out: Plant response rating, Morningglory",15%
same,plant injury at 125 g/ha,"[7]; 125 g ai/ha, read-out: Plant response rating (scale 0 to 100), Oilseed Rape",98%
same,plant injury at 16 g/ha,"[7]; 16 g ai/ha, scale 0 to 100 (0 no effect, 100 complete control), read-out: Plant response rating, Oilseed Rape",40%
same,plant injury at 31 g/ha,"[7]; 31 g ai/ha, scale 0 to 100 (0 no effect, 100 complete control), read-out: Plant response rating, Oilseed Rape",50%
same,plant injury at 62 g/ha,"[7]; 62 g ai/ha, scale 0 to 100 (0 no effect, 100 complete control), read-out: Plant response rating, Oilseed Rape",90%
same,pest or weed control at 125 g/ha,"[8]; 125 g ai/ha, read-out: Plant response rating (scale 0 to 100), Pigweed",100%
same,pest or weed control at 16 g/ha,"[8]; 16 g ai/ha, scale 0 to 100 (0 no effect, 100 complete control), read-out: Plant response rating, Pigweed",70%
same,pest or weed control at 31 g/ha,"[8]; 31 g ai/ha, scale 0 to 100 (0 no effect, 100 complete control), read-out: Plant response rating, Pigweed",75%
same,pest or weed control at 62 g/ha,"[8]; 62 g ai/ha, scale 0 to 100 (0 no effect, 100 complete control), read-out: Plant response rating, Pigweed",100%
same,pest or weed control at 125 g/ha,"[9]; 125 g ai/ha, read-out: Plant response rating (scale 0 to 100), Ragweed",50%
same,pest or weed control at 16 g/ha,"[9]; 16 g ai/ha, scale 0 to 100 (0 no effect, 100 complete control), read-out: Plant response rating, Ragweed",80%
same,pest or weed control at 31 g/ha,"[9]; 31 g ai/ha, scale 0 to 100 (0 no effect, 100 complete control), read-out: Plant response rating, Ragweed",60%
same,pest or weed control at 62 g/ha,"[9]; 62 g ai/ha, scale 0 to 100 (0 no effect, 100 complete control), read-out: Plant response rating, Ragweed",70%
same,plant injury at 125 g/ha,"soybean (Glycine max); 125 g ai/ha, read-out: Plant response rating (scale 0 to 100), Soybean",95%
same,plant injury at 16 g/ha,"soybean (Glycine max); 16 g ai/ha, scale 0 to 100 (0 no effect, 100 complete control), read-out: Plant response rating, Soybean",0%
same,plant injury at 31 g/ha,"soybean (Glycine max); 31 g ai/ha, scale 0 to 100 (0 no effect, 100 complete control), read-out: Plant response rating, Soybean",25%
same,plant injury at 62 g/ha,"soybean (Glycine max); 62 g ai/ha, scale 0 to 100 (0 no effect, 100 complete control), read-out: Plant response rating, Soybean",45%
same,pest or weed control at 125 g/ha,"[10]; 125 g ai/ha, read-out: Plant response rating (scale 0 to 100), Waterhemp",100%
same,pest or weed control at 16 g/ha,"[10]; 16 g ai/ha, scale 0 to 100 (0 no effect, 100 complete control), read-out: Plant response rating, Waterhemp",100%
same,pest or weed control at 31 g/ha,"[10]; 31 g ai/ha, scale 0 to 100 (0 no effect, 100 complete control), read-out: Plant response rating, Waterhemp",100%
same,pest or weed control at 62 g/ha,"[10]; 62 g ai/ha, scale 0 to 100 (0 no effect, 100 complete control), read-out: Plant response rating, Waterhemp",100%
same,pest or weed control at 125 g/ha,"[11]; 125 g ai/ha, read-out: Plant response rating (scale 0 to 100), Nutsedge, Yellow",5%
same,pest or weed control at 16 g/ha,"[11]; 16 g ai/ha, scale 0 to 100 (0 no effect, 100 complete control), read-out: Plant response rating, Nutsedge, Yellow",0%
same,pest or weed control at 31 g/ha,"[11]; 31 g ai/ha, scale 0 to 100 (0 no effect, 100 complete control), read-out: Plant response rating, Nutsedge, Yellow",0%
same,pest or weed control at 62 g/ha,"[11]; 62 g ai/ha, scale 0 to 100 (0 no effect, 100 complete control), read-out: Plant response rating, Nutsedge, Yellow",5%
